Source: patent US20190262431A1, “CBL-FAMILY INHIBITOR COMPRISING A CBL-FAMILY TKB DOMAIN BINDING PEPTIDE FOR THE PREVENTION OR TREATMENT OF DISEASES” (IMBA - INSTITUT FÜR MOLEKULARE BIOTECHNOLOGIE GMBH, priority 2016, published 2019)
Non-standard residues stand in square brackets, D forms with d. Residues, ends and D or L forms follow the SMILES beside them. No end group written: not given here. *: point of attachment. pY = N[C@@H](Cc1ccc(OP(=O)(O)O)cc1)C(=O)O; Cbz = O=C(OCc1ccccc1)*

Columns and labels:
BM-DC [1] = test: Cytokine secretion by Candida albicans stimulated BM-DC (ELISA); format: cell-based, mouse; conditions: 18 h
Description: Cytokine secretion by cell culture supernatants or in the peritoneal lavage was assessed with ELISA kits purchased from eBioscience (IL-1β, TNF, IL-6, IL-12, IL-23) or R&D Systems (IL-1Ra) according to the manufacturer's instructions. Production of reactive oxygen species (ROS) was measured with as assay using luminol as the probe in real-time over 90 min as described previously (Bourgeois et al., 2009). Caspase-8 activity was assessed using the CaspGLOW assay (Promega) according to the manufacturer's instructions.
(§1) BM-M and BM-DC were stimulated with C. albicans (strain SC5314), Zymosan (Invivogen), Curdlan (Invivogen), TDM (Invivogen), CpG (Invivogen), LPS (Invivogen), or C. albicans hyphae. For inhibition experiments cells were treated with the Syk inhibitor R406 (Selleckchem), anti-Dectin-1 antibody (Invivogen), MG132 (Calbiochem), or Dynasore (Sigma-Aldrich), 30 min prior to stimulation (MOI: Immune cell: C. albicans=1:2). Fungal isolates of Candida krusei, Candida glabrata, and Candida dubliniensis were kindly provided by the Allgemeines Krankenhaus Vienna (AKH). Fungal isoates were tested by PCR to verify the respective species.

BM-DC [2] = test: Killing assay (fungicidal activity against Candida albicans); format: cell-based, mouse; conditions: for BM-DC mediated Candida albicans killing in the presence of inhibitor: inhibitor added 30 min prior to stimulation
Description: To assess the fungicidal activity, the indicated immune cells were plated in replicates at a density of 1×10^5 cells/well in 96-well plates. Cells were incubated with Candida albicans at a multiplicity of infection of 1:500 for 24 h. After incubation, phagocytes were fixed by the addition of paraformaldehyde at a final concentration of 4%. Subsequently, Candida albicans were stained with Crystal Violet (Sigma) and killing was assessed by a comparison of colony numbers in wells with or without phagocytes.
as §1

murine CD4+ T cells = test: Murine T cell proliferation assay; format: cell-based, mouse; conditions: for proliferative response of cblb Δ/Δ CD4+ T cells: CD3 or CD3 plus CD28 antibodies, versus untreated cells; for proliferative response of cblb Δ/Δ CD4+ T cells / proliferative response of cblb+/+ CD4+ T cells: 3 days; for proliferative response of cblb+/+ CD4+ T cells: plate bound CD3 or CD3 plus soluble CD28 antibodies, versus no peptide
Description: Murine CD4+ T cells were purified from pooled spleens and lymph nodes using MACS technology (Miltenyi Biotec). […] Purified T cells were labeled with the cell proliferation dye eFluor 670 (eBioscience) and cultured in IMDM cell culture medium (Gibco), supplemented with 10% fetal bovine serum (Sigma), L-Glutamine (Thermo Fisher), Penicillin and Streptomycin (Thermo Fisher), in the presence of 5 ng/ml of recombinant IL-2 (Biolegend) and the indicated concentrations of peptide. After 3 days, cells were stained with the fixable viability dye eFluor 780 (Thermo Fisher), and stained with a CD4 antibody (RM4-5, Brilliant Violet 711, Biolegend). Cells were analyzed with a BD LSR Fortessa II flow cytometer (Becton Dickinson), subsequently, and data were analyzed using the FlowJo v10.0.8 software (Tree Star).

BM-DC [3] = test: ROS production by BM-DC co-cultured with Candida albicans (luminol assay); format: cell-based, mouse; conditions: Cbl-b+/+ BM-DC; 100 μM peptide; versus no peptide
Description: BM-DC or BM-M were obtained by differentiation from bone marrow precursor cells.

Candida albicans = test: Systemic (intravenous) Candida albicans infection of mice; format: in vivo, mouse; conditions: control peptides versus untreated control cohort
Description: 8-10 week old mice were infected with 10^5 colony forming units (CFU) of C. albicans (strain SC5314), 10^5 colony forming units (CFU) of C. dubliniensis, or 10^5 CFUs of Listeria monocytogenes (strain EGD) intravenously. C. albicans CFUs were assessed from various organs as described (Wirnsberger et al., 2014). For clodronate or PBS liposome treatment experiments, mice were injected intraperitoneally with 100 ul/10 g mouse weight of liposomes both 24 h before and 24 h after intravenous C. albicans infections. Clodronate or PBS control liposomes were obtained from clodronateliposomes.org, and handled according to the manufacturer's instructions.

phosphorylated Syk = test: Western blotting of Syk in Candida albicans stimulated BM-DC with MG132; format: cell-based, mouse; conditions: MG132 10 μM
Description: as §1
Western blotting was performed according to standard protocols. Blots were blocked for 1 hour with 5% bovine serum albumin in 1×TBS/0.1% Tween-20, or 4% BSA in 1×TBS/0.1% Tween-20 for phosphorylated epitopes, followed by overnight incubation at 4° C. with primary antibodies. Subsequently, blots were washed three times in 1×TBS/0.1% Tween-20 for 15 min, followed by incubation with HRP-conjugated secondary antibodies (1:2500; GE Healthcare # NA9340V) for 45 min at room temperature, washed three times in 1×TBS/0.1% Tween-20 for 15 min and visualized using enhanced chemiluminescence (ECL Plus, Pierce). […] Precipitates were analyzed by Western blotting using the indicated antibodies. […] Precipitates were analyzed by Western blotting with the indicated antibodies.

human CD8+ T cells = test: Human T cell assays (CFSE proliferation), CD8+ T cells; format: cell-based; conditions: plate bound CD3/CD28 antibodies; 3 days; CFSE dilution
Description: (§2) Peripheral blood mononuclear cells (PBMC) were purified from human blood using a Lymphoprep™ PBMC isolation kit (Stemcell Technologies), according to the manufacturer's instructions. Human CD4+ or CD8+ T cells were purified from PBMC using CD4 or CD8 MicroBeads (Miltenyi Biotec), respectively, and MACS technology (Miltenyi Biotec). For proliferation assays, flat-bottom 96-well plates were coated with CD3 (OKT3, 0.1 μg/ml) and CD28 (CD28.2, 0.1 μg/ml) antibodies in PBS at 37 degrees C. for 2 h. To monitor proliferative expansion, assays were carried out with carboxyfluorescein succinimidyl ester (CFSE; eBioscience) labeled T cells. T cells were cultured in X-VIVO 15 chemically defined, serum free hematopoietic cell medium (Lonza), with the indicated concentrations of peptide or vehicle control. After 72 h […], cells were labeled with antibodies against CD4 (RPA-T4, Brilliant Violet 510 labeled, Biolegend) or CD8 (RPA-T8, APC-eFluor 780 labeled, eBioscience), and CD69 (FN50, PE/Cy7 labeled, Biolegend), and analyzed on a Beckman Coulter Gallios flow cytometer. Data were analyzed using Beckman Coulter Kaluza software. IFN-γ secretion into cell culture supernatants of the proliferation assays was determined by enzyme-linked immunosorbent assays (ELISA) according to the manufacturer's (BD Biosciences) instructions.

human CD4+ T cells = test: Human T cell assays (CFSE proliferation, IFN-γ ELISA, CD69), CD4+ T cells; format: cell-based
Description: as §2

B16-SIY melanoma cells = test: B16-SIY in vivo tumor model; design: species or system mouse; conditions: C57Bl/6 mice; 100 μg i.p. every other day
Description: B16-SIY tumor cells as described in (Spranger, 2014) were cultured in DMEM cell culture media (Gibco) supplemented with 10% fetal bovine serum (Sigma), L-Glutamine (Thermo Fisher), Penicillin and Streptomycin (Thermo Fisher). 10^6 tumor cells were transplanted intradermally into C57Bl/6 mice. Mice were injected intraperitoneally with 100 μg of the indicated peptides or vehicle control every other day starting 24 h after tumor cell inoculation. Bodyweight and tumor volume were measured at the indicated time points, subsequently.

**Q.** For COc1cc(Nc2ncc(F)c(Nc3ccc4c(n3)NC(=O)C(C)(C)O4)n2)cc(OC)c1OC [R406], which “IL-1β secretion by Candida albicans stimulated BM-DC” value (BM-DC [1]; BM-DC of all three genotypes) is on record?
**A.** The value was “almost completely abrogated”.

**Q.** And the “release of IL-6 by Candida albicans stimulated BM-DC” value (BM-DC [1]; all three genotypes)?
**A.** The value was “almost completely abrogated”.

**Q.** What about the “release of TNF by Candida albicans stimulated BM-DC” value (BM-DC [1]; all three genotypes) of the same molecule?
**A.** Its value is “almost completely abrogated”.

**Q.** And the “BM-DC mediated Candida albicans killing in the presence of inhibitor” value (BM-DC [2])?
**A.** Its value is “almost completely abrogated”.

**Q.** What does the source list for “KIKKTKKKGRKKIKKTKKKGRKSTPNFGVYGTSPWGPE (KIKKTKKKGRKKIKKTKKKGRKSTPNFGV[pY]GTSPWGPE; listed as Mus musculus) [M4]”?
**A.** proliferative response of cblb Δ/Δ CD4+ T cells (murine CD4+ T cells): only mildly increased; proliferative response of cblb+/+ CD4+ T cells (murine CD4+ T cells): only mildly increased

**Q.** Which “fungicidal activity (killing capacity) of BM-DC upon Candida albicans infection” value (BM-DC [2]; 24 h co-culture, 100 μM peptide) does the source give for “DRQIKIWFQNRRMKWKK [Antennapedia peptide, cell penetrating peptide derived from the Drosophila Antennapedia homeodomain, used alone as control]” here?
**A.** The value was “did not affect”.

**Q.** And the “ROS production by BM-DC in response to Candida albicans stimulation” value (BM-DC [3])?
**A.** The value was “did not affect”.

**Q.** And the morbidity or mortality (Candida albicans)?
**A.** The morbidity or mortality was “did not affect”.

**Q.** With CC(C)C[C@@H](C=O)NC(=O)[C@H](CC(C)C)NC(=O)[C@H](CC(C)C)NC(=O)OCc1ccccc1 [MG132] (Cbz-Leu-Leu-Leu-aldehyde) as the molecule, how does the “levels of phosphorylated Syk” value (phosphorylated Syk; Cbl-b Δ/Δ BM-DC stimulated with Candida albicans) read?
**A.** The value was “did not change”.

**Q.** What about the “phosphorylated Syk in lysates” value (phosphorylated Syk; Cbl-b+/+ BM-DC stimulated with Candida albicans) of the same molecule?
**A.** Its value is “increase”.

**Q.** How did the “proliferative response of human CD8+ T cells” value (human CD8+ T cells) turn out when “DRQIKIWFQNRRMKWKKSTVSFNPYEPELAPWA (DRQIKIWFQNRRMKWKKSTVSFNP[pY]EPELAPWA; listed as Homo sapiens) [H1]” was run?
**A.** Its value is “dose dependent significant increase”.

**Q.** What about the “activation marker CD69 on T cells” value (human CD4+ T cells; percentage of CD69+ of total CD4+ cells, versus untreated cells) of the same molecule?
**A.** The value was “dose dependent upregulation”.

**Q.** What about the “proliferative response of human CD4+ T cells” value (human CD4+ T cells; plate bound CD3/CD28 antibodies, 3 days, CFSE dilution) of the same molecule?
**A.** The value was “dose dependent significant increase”.

**Q.** And the “production of IFN-γ by CD4+ T cells” value (human CD4+ T cells; supernatants of proliferation assay, ELISA)?
**A.** The value was “increased significantly”.

**Q.** Which “proliferative response of cblb Δ/Δ CD4+ T cells” value (murine CD4+ T cells) does the source give for “KIKKTKKKGRKKIKKTKKKGRKSTVSFNPYEPTGGPWG (KIKKTKKKGRKKIKKTKKKGRKSTVSFNP[pY]EPTGGPWG; listed as Mus musculus) [M3]” here?
**A.** Its value is “marked increase”.

**Q.** And the “effect on proliferation under suboptimal stimulatory conditions” value (murine CD4+ T cells; low concentrations of CD3, with or without CD28 co-stimulation)?
**A.** Its value is “more pronounced effects”.

**Q.** And the “proliferative response of cblb+/+ CD4+ T cells” value (murine CD4+ T cells)?
**A.** Its value is “dose dependent increase”.

**Q.** With CC[C@H](C)[C@H](NC(=O)[C@H](CCCCN)NC(=O)[C@@H](NC(=O)[C@H](CCC(N)=O)NC(=O)[C@H](CCCNC(=N)N)NC(=O)[C@@H](N)CC(=O)O)[C@@H](C)CC)C(=O)N[C@@H](Cc1c[nH]c2ccccc12)C(=O)N[C@@H](Cc1ccccc1)C(=O)N[C@@H](CCC(N)=O)C(=O)N[C@@H](CC(N)=O)C(=O)N[C@@H](CCCNC(=N)N)C(=O)N[C@@H](CCCNC(=N)N)C(=O)N[C@@H](CCSC)C(=O)N[C@@H](CCCCN)C(=O)N[C@@H](Cc1c[nH]c2ccccc12)C(=O)N[C@@H](CCCCN)C(=O)N[C@@H](CCCCN)C(=O)N[C@@H](CO)C(=O)N[C@H](C(=O)N1CCC[C@H]1C(=O)N[C@@H](CC(N)=O)C(=O)N[C@@H](Cc1ccccc1)C(=O)NCC(=O)N[C@H](C(=O)N[C@@H](Cc1ccc(OP(=O)(O)O)cc1)C(=O)NCC(=O)N[C@H](C(=O)N[C@@H](CO)C(=O)N1CCC[C@H]1C(=O)N[C@@H](Cc1c[nH]c2ccccc12)C(=O)NCC(=O)N1CCC[C@H]1C(=O)N[C@@H](CCC(=O)O)C(=O)O)[C@@H](C)O)C(C)C)[C@@H](C)O [M2] as the molecule, how does the bodyweight gain (B16-SIY melanoma cells) read?
**A.** Its bodyweight gain is “did not affect”.

**Q.** O=C(N/N=C/c1ccc(O)c(O)c1)c1cc2ccccc2cc1O [Dynasore] was tested. Which “BM-DC mediated Candida albicans killing in the presence of inhibitor” value (BM-DC [2]) did it give?
**A.** The value was “abrogated”.

**Q.** For “DRQIKIWFQNRRMKWKKEAVPLYAWYPNPSTFES (DRQIKIWFQNRRMKWKKEAVPLYAW[pY]PNPSTFES; listed as Homo sapiens) [H2]”, which “effects on proliferation, IFN-γ and CD69 of human T cells” value (human CD4+ T cells; scrambled control, compared with H1) is on record?
**A.** Its value is “Slight effects”.
